pIC50: −log10 of the molar value. Marks after values point to notes of the source that are not given here.
Columns and labels:
[1] = tested on: influenza virus A/H5N2; type: binding
[2] = tested on: influenza virus A/H1N1/NIB23; experiment: fetuin binding inhibition test (FBI-test), influenza virus receptor binding inhibition assay
[3] = tested on: influenza virus A/Н3N2/29/90; experiment: as above
[4] = association in aqueous solution by dynamic light scattering (DLS); type: physicochemical
[5] = association (tectomer formation) on mica surface by scanning force microscopy (SFM); type: physicochemical; settings: 0.1 mg/mL; for tectomer layer height on mica: рН 6.5, tapping mode in air
[6] = FBI-test, value in parentheses for monomeric sialoside

## CC(=O)N[C@H]1[C@H]([C@H](O)[C@H](O)CO)O[C@@](O[C@H]2[C@@H](O)[C@@H](CO)O[C@@H](O[C@H]3[C@H](O)[C@@H](O)[C@H](O)O[C@@H]3CO)[C@@H]2O)(C(=O)O)C[C@@H]1O [3’SL, Neu5Acα2-3Galβ1-4Glcβ]
[1]
  pIC50: 3.82
  Relative activity: 1(150)^b

## CC(=O)N[C@H]1[C@H]([C@H](O)[C@H](O)CO)O[C@](OC[C@H]2O[C@@H](O[C@H]3[C@H](O)[C@@H](NC(C)=O)C(O)O[C@@H]3CO)[C@H](O)[C@@H](O)[C@H]2O)(C(=O)O)C[C@@H]1O (some centres unmarked) [6’SLN, Neu5Acα2-6Galβ1-4GlcNAcβ]
[2]; [6]
  pIC50: 3.82
[2]; inhibition of binding of fetuin peroxidase conjugate to immobilized virus, related to monomer 6’SLN = 1
  Relative activity: 1

## CC(=O)N[C@H]1[C@H]([C@H](O)[C@H](O)CO)O[C@@](OCc2ccccc2)(C(=O)O)C[C@@H]1O [Neu5AcαOBn]
[3]; [6]
  pIC50: 3.82
[3]; inhibition of binding of fetuin peroxidase conjugate to virus immobilized on plastic, related to monomer Neu5AcαOBn = 1
  Relative activity: 1

## Н-Gly4NH(СН2)10NHGly4-Н
[4]; neutral and basic media (рН 6.5 and 8.5, after NaHCO3 or Na2CO3), concentration ≤0.1 mg/mL
  size of associates stable in aqueous media: 800–1200 nm
[5]
  tectomer layer height on mica: 3.7–4.0 nm

## Н-Gly4NH(СН2)10NHGly4-Н·2HCl
[4]; aqueous solution, рН < 5
  concentration at which the peptide associates in acidic solution: ≥ 500 µg/mL

## Н-Gly5-NH(СН2)2NH-Gly5-Н
[5]
  tectomer layer height on mica: 3.3 nm
[5]; рН 6.5, texp = 10 min, tapping mode in air
  planar dimensions of islet-like tectomers on mica: 500–700 nm

Source: paper PMC4077438, “Biantennary oligoglycines and glyco-oligoglycines self-associating in aqueous medium” (Beilstein Journal of Organic Chemistry, 2014)
